Earlier results, collected in patent publication US9329191B2, “Reaction-based fluorescent probe for selective detection of carbon monoxide using metal-mediated carbonylation” (THE REGENTS OF THE UNIVERSITY OF CALIFORNIA, priority 2013, dated 2016).

Conditions: literature

For `NCC(=O)O.[C-]#[O+].[C-]#[O+].[C-]#[O+].[Cl][Ru]` [CORM-3, [Ru(CO)3Cl(glycinate)]], the “CORM-3 concentration shown to not alter cell viability” value is listed as “up to 500 μM”.
